Experiments:
[1] = Binding affinity towards convulsant site of the GABAA receptor was determined in bovine cortical P2 membranes using [3H]TBOB as radioligand; format: cell membranes
[2] = Binding affinity for convulsant site of GABA-A receptor in bovine cortical P2 membranes using [3H]TBOB as radioligand (Unstable); format: cell membranes, Bos taurus

| SMILES | Ki [1] | Ki [2] |
| --- | --- | --- |
| CC(C)(C)C1CSC(C2=CC(=[N+]=[N-])C=C(Br)C2=O)SC1 (stereo unspecified) | 2200 nM | – |
| CC(C)(C)C1CSC(C2=CC(=[N+]=[N-])C=CC2=O)SC1 (stereo unspecified) | 14000 nM | – |
| CC(C)(C)C1CS(=O)(=O)C(C2=CC(=[N+]=[N-])C=CC2=O)S(=O)(=O)C1 (stereo unspecified) | 250000 nM | – |
| CC(C)(C)C1CSC(c2ccccc2O)SC1 (stereo unspecified) | 1800 nM | – |
| CC(C)(C)C1CS(=O)(=O)C(c2cc(O)c(Br)cc2[N+](=O)[O-])S(=O)(=O)C1 (stereo unspecified) | > 30000 nM | – |
| CC(C)(C)C12COC(c3ccccc3)(OC1)OC2 | 18 nM | – |
| CC(C)(C)C1CSC(c2cc([N+](=O)[O-])cc(Br)c2O)SC1 (stereo unspecified) | 220 nM | – |
| CC(C)(C)C1CSC(c2ccccc2)SC1 (stereo unspecified) | 250 nM | – |
| CC(C)(C)C1CS(=O)(=O)C(C2=CC(=[N+]=[N-])C=C(Br)C2=O)S(=O)(=O)C1 (stereo unspecified) | > 30000 nM | – |
| CC(C)(C)C1CSC(c2cc(O)ccc2[N+](=O)[O-])SC1 (stereo unspecified) | 8000 nM | – |
| CC(C)(C)C12COC(c3ccccc3O)(OC1)OC2 | 59 nM | – |
| CC(C)(C)C1CS(=O)(=O)C(c2ccccc2O)S(=O)(=O)C1 (stereo unspecified) | 23900 nM | – |
| CC(C)(C)C12COC(c3ccc(Br)cc3)(OC1)OC2 | 9 nM | – |
| CC(C)(C)C1CS(=O)(=O)C(c2cc([N+](=O)[O-])cc(Br)c2O)S(=O)(=O)C1 (stereo unspecified) | 530 nM | – |
| CC(C)(C)C1CSC(c2ccc(Br)cc2)SC1 (stereo unspecified) | 280 nM | – |
| CC(C)(C)C1CSC(c2cc([N+](=O)[O-])ccc2O)SC1 (stereo unspecified) | 560 nM | – |
| CC(C)(C)C1CS(=O)(=O)C(c2c(F)c(F)c(N=[N+]=[N-])c(F)c2F)S(=O)(=O)C1 (stereo unspecified) | 180 nM | – |
| CC(C)(C)C1CS(=O)(=O)C(c2ccc(Br)cc2)S(=O)(=O)C1 (stereo unspecified) | 3 nM | – |
| CC(C)(C)C1CSC(C2=CC(=O)C=CC2=[N+]=[N-])SC1 (stereo unspecified) | 30000 nM | – |
| CC(C)(C)C1CSC(c2c(F)c(F)c(N=[N+]=[N-])c(F)c2F)SC1 (stereo unspecified) | – | Unstable |
| CC(C)(C)C1CSC(C2=CC(=O)C(Br)=CC2=[N+]=[N-])SC1 (stereo unspecified) | 3600 nM | – |
| CC(C)(C)C1CS(=O)(=O)C(c2ccccc2)S(=O)(=O)C1 (stereo unspecified) | 510 nM | – |
| CC(C)(C)C1CSC(c2cc(O)c(Br)cc2[N+](=O)[O-])SC1 (stereo unspecified) | 4500 nM | – |
| CC(C)(C)C1CS(=O)(=O)C(c2cc(O)ccc2[N+](=O)[O-])S(=O)(=O)C1 (stereo unspecified) | 52000 nM | – |
| CC(C)(C)C12COC(C3=CC(=O)C(Br)=CC3=[N+]=[N-])(OC1)OC2 | 600 nM | – |
| CC(C)(C)C1CS(=O)(=O)C(c2cc([N+](=O)[O-])ccc2O)S(=O)(=O)C1 (stereo unspecified) | 18000 nM | – |

Source: ChEMBL document CHEMBL1127485, “Photoactivatable 2-(4'-azidotetrafluorophenyl)-5-tert-butyl-1,3-dithiane-bis- sulfone and related compounds as candidate irreversible probes for the GABA-gated chloride channels” (J Med Chem, 1994)
